{"source": "patent US20070219213A1", "about": "“Use of Adrenergic N-Phenylpiperazine Antagonists, Pahrmaceutical Compositions Containning Them, and Methods of Preparing Them” (priority 2004, published 2007)", "key": {"[1]": {"tested_on": "alpha 1A and alpha 1B adrenoceptors (rabbit aorta, α1A > α1B)", "assay": "Vasoconstriction assay in rabbit aorta induced by phenylephrine", "type": "cell-based", "details": "for pKB (apparent antagonist potency): Schild equation, 3-300 nM", "experimental": "Vasoconstriction Assay in Rabbit Aorta Induced by Phenylephrine\nAorta rings withdrawn from young male rabbits (1500-1700 g) were tensionated to 2 g (20 mN) and kept in Krebs solution, containing 10 mM Hepes, for 30 minutes, under continuous aeration. During this period, eventual tension adjustments were performed until stabilization in 2 g, always with renewal of Krebs solution. Then, vasoconstrictions were induced by 60 mM KCl solution, in each ring, to verify the viability of the organ on the day of the experiment. The preparation was submitted to contraction with phenylephrine (5×10^−5 M) and, then the rings were washed to reach the basal line (0% of vasoconstriction). The procedure was repeated until obtainment of a constant curve. Then, a curve, using increasing concentrations of phenylephrine (5×10^−9-5×10^−4 M), was performed for each ring, as a positive control. The segments were washed to reach the basal line (0% of vasoconstriction) and incubated with the test compounds, individually, for 30 minutes. A second phenylephrine curve was performed and the obtained data compared to the first control curve. The results were analyzed by one-way ANOVA software from Microcal Origin 4.1. The aorta rings were used once for each compound.\n(§1) Determination of the LASSBio 772 Antagonist Potency (pKB) on the Vasoconstriction of Rabbit or Rat Thoracic Aorta.\ncr is the ratio between phenylephrine concentrations in the presence and absence of antagonist; and\nB is the antagonist's concentration."}, "[2]": {"target": "T1, alpha 1D adrenoceptor (rat aorta) (Rattus norvegicus, UniProt P23944)", "T1 construct": "from tissue; host or cells: rat aorta segments with endothelium", "T1 sequence (P23944 1-561)": "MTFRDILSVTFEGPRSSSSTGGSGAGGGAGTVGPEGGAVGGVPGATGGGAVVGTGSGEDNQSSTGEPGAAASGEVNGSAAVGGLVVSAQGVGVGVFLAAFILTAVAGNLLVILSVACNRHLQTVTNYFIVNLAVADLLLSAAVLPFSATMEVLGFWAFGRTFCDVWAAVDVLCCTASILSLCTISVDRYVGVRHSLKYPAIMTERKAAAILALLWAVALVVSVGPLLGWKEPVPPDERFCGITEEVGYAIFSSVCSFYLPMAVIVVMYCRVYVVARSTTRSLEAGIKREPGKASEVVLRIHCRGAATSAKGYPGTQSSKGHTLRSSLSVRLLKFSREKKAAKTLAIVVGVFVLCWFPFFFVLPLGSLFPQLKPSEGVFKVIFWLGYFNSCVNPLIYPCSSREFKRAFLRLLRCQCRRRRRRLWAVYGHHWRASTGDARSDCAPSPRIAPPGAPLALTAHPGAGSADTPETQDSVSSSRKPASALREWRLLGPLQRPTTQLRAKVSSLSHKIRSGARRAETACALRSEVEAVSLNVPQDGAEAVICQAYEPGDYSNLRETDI", "assay": "Vasoconstriction assay in rat aorta induced by norepinephrine", "type": "cell-based", "experimental": "Vasoconstriction Assay in Mouse Aorta Induced By Norepinephrine\nAorta segments with endothelium (3 mm), withdrawn from young male rats (250-300 g), were placed in containers containing physiologic solution (NaCl 122 mM, KCl 5 mM, NaHCO3 15 mM, glucose 11.5 mM, MgCl2 1.2 mM, CaCl2 1.25 mM and KH2PO4 1.2 mM), kept at 37° C. under aeration with a mixture of 95% of O2 and 5% of CO2, and submitted to a pre-charge of 5 mN for 60 minutes. During this period, eventual tension adjustments were performed until the stabilization in 0.5 g, always with renewal with physiologic solution. Then, vasoconstriction was induced by 60 mM KCl solution, in each ring, to verify the viability of the organ on the day of experiment. The preparation was submitted to the contraction with norepinephrine (5×10^−5 M) and, then the rings were washed to reach the basal line (0% of vasoconstriction). The procedure was repeated until the obtainment of a constant curve. Later, a curve, using increasing concentrations of norepinephrine (3×10^−8-5×10^−5 M), was performed for each ring, as a positive control. The segments were washed to reach the basal line (0% of vasoconstriction) and incubated with the test compounds, individually, for 30 minutes. A second norepinephrine curve was performed and obtained data compared to the first control curve. […] The aorta rings were used once for each compound.\nas §1"}, "[3]": {"target": "T2, α1A (Oryctolagus cuniculus, UniProt O02824)", "T2 construct": "from tissue", "T2 sequence (O02824 1-466)": "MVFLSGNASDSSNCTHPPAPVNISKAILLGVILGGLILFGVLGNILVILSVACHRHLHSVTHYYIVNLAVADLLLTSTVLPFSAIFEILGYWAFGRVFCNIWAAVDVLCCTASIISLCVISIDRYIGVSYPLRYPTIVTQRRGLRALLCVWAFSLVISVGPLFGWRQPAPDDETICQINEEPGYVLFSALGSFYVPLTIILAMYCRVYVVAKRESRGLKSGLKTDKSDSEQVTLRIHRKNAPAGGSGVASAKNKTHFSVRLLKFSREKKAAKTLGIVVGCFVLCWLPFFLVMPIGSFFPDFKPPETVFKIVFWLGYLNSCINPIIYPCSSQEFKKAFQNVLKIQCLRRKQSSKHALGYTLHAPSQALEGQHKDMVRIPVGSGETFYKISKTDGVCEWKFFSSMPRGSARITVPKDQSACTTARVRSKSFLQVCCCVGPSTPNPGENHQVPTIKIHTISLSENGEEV", "assay": "Binding study in rabbit liver"}, "[4]": {"target": "T3, alpha 1B subtype (Rattus norvegicus, UniProt P15823)", "T3 construct": "from tissue; host or cells: rat liver homogenate/membranes", "T3 sequence (P15823 1-515)": "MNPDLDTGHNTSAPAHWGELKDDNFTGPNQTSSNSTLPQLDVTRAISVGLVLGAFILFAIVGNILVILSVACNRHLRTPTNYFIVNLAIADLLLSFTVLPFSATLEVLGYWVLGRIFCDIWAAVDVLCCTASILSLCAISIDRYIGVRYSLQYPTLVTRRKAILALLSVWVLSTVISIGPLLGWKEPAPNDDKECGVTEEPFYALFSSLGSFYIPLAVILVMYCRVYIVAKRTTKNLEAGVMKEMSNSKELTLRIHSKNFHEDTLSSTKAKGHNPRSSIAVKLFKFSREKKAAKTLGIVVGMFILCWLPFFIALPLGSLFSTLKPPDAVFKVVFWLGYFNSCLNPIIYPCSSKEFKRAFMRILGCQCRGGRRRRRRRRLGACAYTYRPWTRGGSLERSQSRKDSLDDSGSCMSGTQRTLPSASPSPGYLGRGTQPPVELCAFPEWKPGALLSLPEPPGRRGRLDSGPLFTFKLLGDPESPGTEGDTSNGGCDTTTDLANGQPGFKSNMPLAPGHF", "assay": "[3H]prazosin binding assay in rat liver"}}, "note": "Where “and” joins values, the source holds several entries; their conditions need not be identical. Identical values can stand only once.", "data": [{"molecule": "COc1ccccc1N1CCN(CCc2ccc3c(c2)OCO3)CC1", "note": "[LASSBio 772, 1-(2-1,3-Benzodioxol-5-yl-ethyl)-4-(2-methoxy-phenyl)-piperazine]", "values": [{"measurement": "antagonist activity on vasoconstriction", "setting": "[1]; 30 microM compound, 5×10^−4 M phenylephrine", "result": "significant antagonist activity"}, {"measurement": "Kb", "setting": "[1]; rabbit aorta, phenylephrine", "result": "~14.1", "unit": "nM"}, {"measurement": "pKB (apparent antagonist potency)", "setting": "[1]; rabbit aorta, phenylephrine", "result": 7.85}, {"measurement": "pKB (apparent antagonist potency)", "setting": "[1]; rabbit aorta, phenylephrine, listed as LASSBio-772", "result": "around 7.85"}, {"measurement": "selectivity index for alpha 1D in comparison to alpha 1B subtype", "setting": "[2]", "result": "≥ 10000"}, {"measurement": "Kb", "setting": "[2]; pKB, rat aorta, α1D", "result": "0.0132 nM and 0.0138 nM"}, {"measurement": "affinity for alpha 1D subtype relative to BMY 7378", "setting": "[2]; rat aorta", "result": "≥ 430", "unit": "times"}, {"measurement": "IC50", "setting": "[3]", "result": 4.9, "unit": "nM"}, {"measurement": "IC50", "setting": "[4]", "result": 450, "unit": "nM"}]}]}
